Results as given in article PMC5218480 (PLoS ONE, 2017).

Test system: MV-4-11 cells
Experiment: Gene expression microarray analysis (Affymetrix PrimeView) and GSEA
Format: cell-based, human
Set-up: RFU PODN (11730768_x_at) / Fold change /veh PODN (11730768_x_at) / RFU LINC00158 (11744669_a_at) / Fold change /veh LINC00158 (11744669_a_at) / RFU DUSP10 (11751237_a_at) / Fold change /veh DUSP10 (11751237_a_at) / RFU ID3 (11757404_x_at) / Fold change /veh ID3 (11757404_x_at) / RFU PLEKHG5 (11737974_s_at) / Fold change /veh PLEKHG5 (11737974_s_at) / RFU LRRC4B (11730491_at) / Fold change /veh LRRC4B (11730491_at) / RFU GIMAP4 (11747438_a_at) / Fold change /veh GIMAP4 (11747438_a_at) / RFU KRT8 (11758183_x_at) / Fold change /veh KRT8 (11758183_x_at) / RFU CNN1 (11734310_a_at) / Fold change /veh CNN1 (11734310_a_at) / RFU VPS37D (11726825_at) / Fold change /veh VPS37D (11726825_at) / RFU C10orf10 (11716522_x_at) / Fold change /veh C10orf10 (11716522_x_at) / RFU KIR2DL2 /// KIR2DL4 /// KIR2DL5A /// KIR2DL5B /// KIR2DS1 /// KIR2DS2 /// KIR2DS3 /// KIR2DS4 /// KIR3DL3 /// KIR3DL3 /// KIR3DS1 (11738374_at) / Fold change /veh KIR2DL2 /// KIR2DL4 /// KIR2DL5A /// KIR2DL5B /// KIR2DS1 /// KIR2DS2 /// KIR2DS3 /// KIR2DS4 /// KIR3DL3 /// KIR3DL3 /// KIR3DS1 (11738374_at) / RFU C1QL1 (11718748_at) / Fold change /veh C1QL1 (11718748_at) / RFU TMPRSS4 (11747572_a_at) / Fold change /veh TMPRSS4 (11747572_a_at) / RFU HAMP (11756126_x_at) / Fold change /veh HAMP (11756126_x_at) / RFU RNFT2 (11725882_a_at) / Fold change /veh RNFT2 (11725882_a_at) / RFU NR4A2 (11747474_a_at) / Fold change /veh NR4A2 (11747474_a_at) / RFU ABCC12 (11746883_a_at) / Fold change /veh ABCC12 (11746883_a_at) / RFU TMEM136 (11760407_x_at) / Fold change /veh TMEM136 (11760407_x_at) / RFU CLDN22 /// WWC2 (11732394_at) / Fold change /veh CLDN22 /// WWC2 (11732394_at) / RFU HLA-DPB1 (11760878_x_at) / Fold change /veh HLA-DPB1 (11760878_x_at) / RFU SPINT1 (11716480_a_at) / Fold change /veh SPINT1 (11716480_a_at) / RFU GAP43 (11754022_s_at) / Fold change /veh GAP43 (11754022_s_at) / RFU A4GNT (11735810_at) / Fold change /veh A4GNT (11735810_at) / RFU PRB3 (11715151_x_at) / Fold change /veh PRB3 (11715151_x_at) / RFU TUBB4B (11761932_at) / Fold change /veh TUBB4B (11761932_at) / RFU CAPN14 (11732068_a_at) / Fold change /veh CAPN14 (11732068_a_at) / RFU TMCC2 (11721928_a_at) / Fold change /veh TMCC2 (11721928_a_at) / RFU IRGQ (11745062_a_at) / Fold change /veh IRGQ (11745062_a_at) / RFU FAM174B (11720279_a_at) / Fold change /veh FAM174B (11720279_a_at) / RFU TMPRSS4 (11748680_a_at) / Fold change /veh TMPRSS4 (11748680_a_at) / RFU FAM212B (11763350_a_at) / Fold change /veh FAM212B (11763350_a_at) / RFU PLEKHG5 (11743358_a_at) / Fold change /veh PLEKHG5 (11743358_a_at) / RFU ZSCAN30 (11745921_a_at) / Fold change /veh ZSCAN30 (11745921_a_at) / RFU CMKLR1 (11741424_a_at) / Fold change /veh CMKLR1 (11741424_a_at) / RFU LOC101060620 /// MAPK8IP1 (11723275_at) / Fold change /veh LOC101060620 /// MAPK8IP1 (11723275_at) / RFU SPTSSB (11747773_x_at) / Fold change /veh SPTSSB (11747773_x_at) / RFU PRSS12 (11739890_at) / Fold change /veh PRSS12 (11739890_at) / RFU BIN1 (11741810_x_at) / Fold change /veh BIN1 (11741810_x_at) / RFU WNT11 (11732464_a_at) / Fold change /veh WNT11 (11732464_a_at) / RFU C10orf10 (11716521_a_at) / Fold change /veh C10orf10 (11716521_a_at) / RFU C5orf56 (11738089_at) / Fold change /veh C5orf56 (11738089_at) / RFU CYB561 (11721691_x_at) / Fold change /veh CYB561 (11721691_x_at) / RFU ANKRD19P (11752326_a_at) / Fold change /veh ANKRD19P (11752326_a_at) / RFU OR2T12 /// OR2T33 /// OR2T8 (11738714_s_at) / Fold change /veh OR2T12 /// OR2T33 /// OR2T8 (11738714_s_at) / RFU VCAN (11748164_a_at) / Fold change /veh VCAN (11748164_a_at) / RFU JSRP1 (11732532_at) / Fold change /veh JSRP1 (11732532_at) / RFU KRTAP10-11 (11738290_x_at) / Fold change /veh KRTAP10-11 (11738290_x_at) / RFU MYO3A (11730013_a_at) / Fold change /veh MYO3A (11730013_a_at) / RFU EBF3 (11725865_a_at) / Fold change /veh EBF3 (11725865_a_at) / RFU CAMK2N1 (11719241_x_at) / Fold change /veh CAMK2N1 (11719241_x_at) / RFU C5orf56 (11738088_a_at) / Fold change /veh C5orf56 (11738088_a_at) / RFU OLFML3 (11715873_a_at) / Fold change /veh OLFML3 (11715873_a_at) / RFU LOC100653217 /// NTM (11731650_a_at) / Fold change /veh LOC100653217 /// NTM (11731650_a_at) / RFU MAPK11 (11762145_a_at) / Fold change /veh MAPK11 (11762145_a_at) / RFU FIZ1 (11724087_x_at) / Fold change /veh FIZ1 (11724087_x_at) / RFU OASL (11726364_x_at) / Fold change /veh OASL (11726364_x_at) / RFU SOX15 (11748057_x_at) / Fold change /veh SOX15 (11748057_x_at) / RFU CD79A (11719716_a_at) / Fold change /veh CD79A (11719716_a_at) / RFU HIST1H1D (11736915_at) / Fold change /veh HIST1H1D (11736915_at) / RFU CASKIN2 (11723855_a_at) / Fold change /veh CASKIN2 (11723855_a_at) / RFU LOC730098 (11760151_x_at) / Fold change /veh LOC730098 (11760151_x_at) / RFU OR4N2 (11742367_at) / Fold change /veh OR4N2 (11742367_at) / RFU PRRT2 (11749266_a_at) / Fold change /veh PRRT2 (11749266_a_at) / RFU SNX32 (11753110_a_at) / Fold change /veh SNX32 (11753110_a_at) / RFU CDHR5 (11726645_a_at) / Fold change /veh CDHR5 (11726645_a_at) / RFU RCAN1 (11760418_a_at) / Fold change /veh RCAN1 (11760418_a_at) / RFU FAM167A (11723789_a_at) / Fold change /veh FAM167A (11723789_a_at) / RFU FAM26E (11764081_at) / Fold change /veh FAM26E (11764081_at) / RFU ISYNA1 (11749810_s_at) / Fold change /veh ISYNA1 (11749810_s_at) / RFU ACY1 (11761880_at) / Fold change /veh ACY1 (11761880_at) / RFU 11764098_at / Fold change /veh 11764098_at / RFU SAMD14 (11745864_x_at) / Fold change /veh SAMD14 (11745864_x_at) / RFU NPB (11741838_a_at) / Fold change /veh NPB (11741838_a_at) / RFU TMPRSS6 (11731388_a_at) / Fold change /veh TMPRSS6 (11731388_a_at) / RFU KRTAP10-2 (11738614_at) / Fold change /veh KRTAP10-2 (11738614_at) / RFU ARHGAP8 /// PRR5-ARHGAP8 (11727945_x_at) / Fold change /veh ARHGAP8 /// PRR5-ARHGAP8 (11727945_x_at) / RFU KRTAP5-7 /// NADSYN1 (11734609_at) / Fold change /veh KRTAP5-7 /// NADSYN1 (11734609_at) / RFU RASL12 (11751679_a_at) / Fold change /veh RASL12 (11751679_a_at) / RFU CDKN2B (11736163_a_at) / Fold change /veh CDKN2B (11736163_a_at) / RFU PRF1 (11729649_at) / Fold change /veh PRF1 (11729649_at) / RFU, ZNF638 /// ZNF638-IT1 / Fold change vs veh, ZNF638 /// ZNF638-IT1 / RFU, PANK3 / Fold change vs veh, PANK3 / RFU, SH3YL1 / Fold change vs veh, SH3YL1 / RFU, ZEB2 / Fold change vs veh, ZEB2 / RFU, NRIP1 / Fold change vs veh, NRIP1 / RFU, PTTG1IP / Fold change vs veh, PTTG1IP / RFU, CAPN2 / Fold change vs veh, CAPN2 / RFU, MED14 / Fold change vs veh, MED14 / RFU, SNORA58 / Fold change vs veh, SNORA58 / RFU, C1orf63 / Fold change vs veh, C1orf63 / RFU, LRRFIP1 / Fold change vs veh, LRRFIP1 / RFU, NDUFAF7 / Fold change vs veh, NDUFAF7 / RFU, SLC12A2 / Fold change vs veh, SLC12A2 / RFU, IBTK / Fold change vs veh, IBTK / RFU, ESF1 / Fold change vs veh, ESF1 / Fold change vs veh, TMEM50B / RFU, TAOK1 / Fold change vs veh, TAOK1 / RFU, ACBD3 / Fold change vs veh, ACBD3 / RFU, TMA16 / Fold change vs veh, TMA16 / RFU, RWDD3 / Fold change vs veh, RWDD3 / RFU, BCAT1 / Fold change vs veh, BCAT1 / RFU, EDEM3 / Fold change vs veh, EDEM3 / RFU, TMEM33 / Fold change vs veh, TMEM33 / RFU, WDR75 / Fold change vs veh, WDR75 / RFU, AHCTF1 / Fold change vs veh, AHCTF1 / RFU, TFRC / Fold change vs veh, TFRC / RFU, ZDHHC17 / Fold change vs veh, ZDHHC17 / RFU, NOM1 / Fold change vs veh, NOM1 / RFU, ARL8B / Fold change vs veh, ARL8B / RFU, ZBTB11 / Fold change vs veh, ZBTB11 / RFU, TAMM41 / Fold change vs veh, TAMM41 / RFU, KIAA1704 /// LOC100996395 / Fold change vs veh, KIAA1704 /// LOC100996395 / RFU, ING1 / Fold change vs veh, ING1 / RFU, TRMT61B / Fold change vs veh, TRMT61B / RFU, FUBP3 / Fold change vs veh, FUBP3 / RFU, TP53 / Fold change vs veh, TP53 / RFU, TNKS2 / Fold change vs veh, TNKS2 / RFU, ZFP14 / Fold change vs veh, ZFP14 / RFU, ACTR2 / Fold change vs veh, ACTR2 / RFU, PPP3R1 / Fold change vs veh, PPP3R1 / RFU, PIK3R1 / Fold change vs veh, PIK3R1 / RFU, HNRNPA1 / Fold change vs veh, HNRNPA1 / RFU, RNF170 / Fold change vs veh, RNF170 / RFU, ZNF28 / Fold change vs veh, ZNF28 / RFU, RNGTT / Fold change vs veh, RNGTT / RFU, OGT / Fold change vs veh, OGT / RFU, BRD1 / Fold change vs veh, BRD1 / RFU, MARS / Fold change vs veh, MARS / RFU, ZNF655 / Fold change vs veh, ZNF655 / RFU, FAHD1 / Fold change vs veh, FAHD1 / RFU, BDP1 / Fold change vs veh, BDP1 / RFU, LRRCC1 / Fold change vs veh, LRRCC1 / RFU, ARID1A / Fold change vs veh, ARID1A / RFU, ZNF146 / Fold change vs veh, ZNF146 / RFU, ZNF330 / Fold change vs veh, ZNF330 / RFU, GPN3 / Fold change vs veh, GPN3 / RFU, C9orf123 / Fold change vs veh, C9orf123 / RFU, N4BP2L2 / Fold change vs veh, N4BP2L2 / RFU, ARFIP1 / Fold change vs veh, ARFIP1 / RFU, FAM179B / Fold change vs veh, FAM179B / RFU, BCL10 / Fold change vs veh, BCL10 / RFU, UHRF1BP1L / Fold change vs veh, UHRF1BP1L / RFU, BET1 / Fold change vs veh, BET1 / RFU, CNOT2 / Fold change vs veh, CNOT2 / RFU, ZNF268 / Fold change vs veh, ZNF268 / Fold change vs veh, ZNF507 / RFU, DGCR2 / Fold change vs veh, DGCR2 / RFU, WDSUB1 / Fold change vs veh, WDSUB1 / Fold change vs veh, HSP90B1 /// MIR3652 / RFU, ADSS / Fold change vs veh, ADSS / RFU, GK / Fold change vs veh, GK / RFU, ZNF148 / Fold change vs veh, ZNF148 / RFU, TAF9 / Fold change vs veh, TAF9 / RFU, SLC1A5 / Fold change vs veh, SLC1A5 / RFU, SLMO2 / Fold change vs veh, SLMO2 / RFU, ABCC4 / Fold change vs veh, ABCC4 / RFU, LOC101060439 /// RAP1B / Fold change vs veh, LOC101060439 /// RAP1B / RFU, RFX7 / Fold change vs veh, RFX7 / RFU, GTPBP10 / Fold change vs veh, GTPBP10 / RFU, CNEP1R1 / Fold change vs veh, CNEP1R1 / RFU, BIVM-ERCC5 /// ERCC5 / Fold change vs veh, BIVM-ERCC5 /// ERCC5 / RFU, ILF3 / Fold change vs veh, ILF3 / RFU 11762660_at / Fold change /veh 11762660_at / RFU VCAN (11757783_s_at) / Fold change /veh VCAN (11757783_s_at) / RFU DDX43 (11728927_at) / Fold change /veh DDX43 (11728927_at) / RFU KRT8 (11758188_x_at) / Fold change /veh KRT8 (11758188_x_at) / RFU NKD1 (11759106_at) / Fold change /veh NKD1 (11759106_at) / RFU SRD5A1 (11742802_a_at) / Fold change /veh SRD5A1 (11742802_a_at) / RFU TPSAB1 /// TPSB2 (11721975_s_at) / Fold change /veh TPSAB1 /// TPSB2 (11721975_s_at) / RFU GSTM3 (11746129_a_at) / Fold change /veh GSTM3 (11746129_a_at) / RFU IL23R (11737362_x_at) / Fold change /veh IL23R (11737362_x_at) / RFU TMEM51 (11727254_a_at) / Fold change /veh TMEM51 (11727254_a_at) / RFU PIWIL2 (11732686_x_at) / Fold change /veh PIWIL2 (11732686_x_at) / RFU ORM1 (11744905_x_at) / Fold change /veh ORM1 (11744905_x_at) / RFU CCDC152 (11743942_at) / Fold change /veh CCDC152 (11743942_at) / RFU ECM1 (11717891_a_at) / Fold change /veh ECM1 (11717891_a_at) / RFU IL23R (11748794_a_at) / Fold change /veh IL23R (11748794_a_at) / RFU TNFAIP8L3 (11732012_x_at) / Fold change /veh TNFAIP8L3 (11732012_x_at) / RFU MBOAT4 (11741988_at) / Fold change /veh MBOAT4 (11741988_at) / RFU 11764193_at / Fold change /veh 11764193_at / RFU TMEM53 (11763286_at) / Fold change /veh TMEM53 (11763286_at) / RFU MAGEB2 (11727129_at) / Fold change /veh MAGEB2 (11727129_at) / RFU TMEM200A (11744735_a_at) / Fold change /veh TMEM200A (11744735_a_at) / RFU CCDC152 (11751479_a_at) / Fold change /veh CCDC152 (11751479_a_at) / RFU FAM211A (11726209_a_at) / Fold change /veh FAM211A (11726209_a_at) / RFU RGS16 (11746705_a_at) / Fold change /veh RGS16 (11746705_a_at) / RFU VCAN (11755009_s_at) / Fold change /veh VCAN (11755009_s_at) / RFU RHOB (11743442_s_at) / Fold change /veh RHOB (11743442_s_at) / RFU RGS16 (11720943_a_at) / Fold change /veh RGS16 (11720943_a_at) / RFU RGS16 (11720944_at) / Fold change /veh RGS16 (11720944_at) / RFU, VPS4B / Fold change vs veh, VPS4B / RFU, CREB1 / Fold change vs veh, CREB1 / RFU, DNAJC13 / Fold change vs veh, DNAJC13 / RFU, GNAQ / Fold change vs veh, GNAQ / RFU, CDK5R1 / Fold change vs veh, CDK5R1 / RFU, ZRANB3 / Fold change vs veh, ZRANB3 / RFU, CUL4A / Fold change vs veh, CUL4A / RFU, CCNY / Fold change vs veh, CCNY / RFU, UFL1 / Fold change vs veh, UFL1 / RFU, COG3 / Fold change vs veh, COG3 / RFU, DIAPH2 / Fold change vs veh, DIAPH2 / RFU, SKA2 / Fold change vs veh, SKA2 / RFU, AFF3 / Fold change vs veh, AFF3 / RFU, LMF1 / Fold change vs veh, LMF1 / RFU, IPO11 / Fold change vs veh, IPO11 / RFU, DFFB / Fold change vs veh, DFFB / RFU, FOXP1 / Fold change vs veh, FOXP1 / RFU, CARD8 / Fold change vs veh, CARD8 / RFU, STRN3 / Fold change vs veh, STRN3 / RFU, ADK / Fold change vs veh, ADK / RFU, RASSF2 / Fold change vs veh, RASSF2 / RFU, WIPF1 / Fold change vs veh, WIPF1 / RFU, LARP1B / Fold change vs veh, LARP1B / RFU, RASA1 / Fold change vs veh, RASA1 / RFU, RB1 / Fold change vs veh, RB1 / RFU, PPFIA1 / Fold change vs veh, PPFIA1 / RFU, MAT2A / Fold change vs veh, MAT2A / RFU, CCT5 / Fold change vs veh, CCT5 / RFU, WDR92 / Fold change vs veh, WDR92 / RFU, CUX1 / Fold change vs veh, CUX1 / RFU, TTC7A / Fold change vs veh, TTC7A / RFU, TMEM135 / Fold change vs veh, TMEM135 / RFU, DEPTOR / Fold change vs veh, DEPTOR / RFU, CPM / Fold change vs veh, CPM / RFU, DNAJB6 / Fold change vs veh, DNAJB6 / RFU, CACNA2D3 / Fold change vs veh, CACNA2D3 / RFU, DTX4 / Fold change vs veh, DTX4 / RFU, TFCP2 / Fold change vs veh, TFCP2 / RFU, GMCL1 /// GMCL1P1 / Fold change vs veh, GMCL1 /// GMCL1P1 / RFU, AEBP2 / Fold change vs veh, AEBP2 / RFU, SNHG1 /// SNORD22 /// SNORD25 /// SNORD26 /// SNORD27 /// SNORD28 /// SNORD29 /// SNORD31 / Fold change vs veh, SNHG1 /// SNORD22 /// SNORD25 /// SNORD26 /// SNORD27 /// SNORD28 /// SNORD29 /// SNORD31 / Fold change (Aza/veh), C12orf56 (ProbeSet 11735607_a_at) / Fold change (ACY-1035/veh), C12orf56 (ProbeSet 11735607_a_at) / Fold change (Aza/veh), FGFR1OP (ProbeSet 11751329_s_at) / Fold change (ACY-1035/veh), FGFR1OP (ProbeSet 11751329_s_at) / Fold change (Aza/veh), VPS36 (ProbeSet 11739960_a_at) / Fold change (ACY-1035/veh), VPS36 (ProbeSet 11739960_a_at) / RFU SYPL1 (11715823_x_at) / Fold change /veh SYPL1 (11715823_x_at) / RFU IGFBP7 (11715501_s_at) / Fold change /veh IGFBP7 (11715501_s_at) / RFU REEP3 (11722064_at) / Fold change /veh REEP3 (11722064_at) / RFU IGLL1 (11728026_x_at) / Fold change /veh IGLL1 (11728026_x_at): dose or concentration left out as unconfirmed
Conditions: ProbeSet 11716865_a_at; LIST B

Q: `Nc1ncn([C@@H]2O[C@H](CO)[C@@H](O)[C@H]2O)c(=O)n1` [azacitidine] was tested. Which “Fold change vs veh, SLC1A5” value did it give?
A: 0.87
